Our source for the IC50 values is patent US20250066363A1, “Bicyclic DGK Inhibitors” (Incyte Corporation, priority 2023, published 2025).

Usually IC50 stands for the midpoint of a concentration-inhibition curve.

One experiment addresses DGKα (Homo sapiens (Human), UniProt P23743). As to the kind of experiment: In vitro DGKα inhibition assay (ADP-Glo). The conditions noted are these: first column of Table A; His-tagged human recombinant DGKα 0.1 nM, 50 μM ATP, 20 μM DLG. It is filed as biochemical. How it is done:
(§1) The DGKα and DGKζ biochemical reactions were performed using His-tagged human recombinant enzymes (Signal Chem, DGKα, #D21-10BH; DGKζ, #D30-1OH)) and DLG (Dilauroyl-sn-glycerol) lipid substrate (Signal Chem, #D430-59). ADP-Glo assay was performed using ADP-Glo™ kinase Assay kit (Promega, #V9104). The reactions were carried out in assay buffer containing 40 mM Tris, pH 7.5, 0.1% CHAPS, 0.1% Prionex, 40 mM NaCl, 5 mM MgCl2, 1 mM CaCl2, and 1 mM DTT. DGKα reactions contained 0.1 nM DGKα, 50 μM ATP, and 20 μM DLG. And DGKζ reactions contained 0.4 nM DGKζ, 30 μM ATP, and 20 μM DLG.
(§2) For compound inhibition studies, 40 nL test compound in DMSO was added to wells of white polystyrene plates in 384-well (Greiner, #784075) or 1536-well format (Greiner, #782075). Compounds were added with top concentration of 2 mM with 11 point, 3-fold dilution series. Enzyme solution (contains 2× DGK enzyme concentration in 1× assay buffer) was added to the plate in 2 μL/well volume, followed by 2 μL/well of substrate solution (contains 2× concentration of ATP and DLG substrate in 1× assay buffer). Plates were then centrifuged for 1 min at 1200 RPM and sealed or lidded. For 4 μL reaction volume, test compounds were therefore diluted 100× to final top concentration of 20 μM. After 90 minute incubation, reactions were quenched by addition of 2 μL/well Promega ADP-Glo Reagent, followed by centrifugation and lidding. After 60 min incubation, 2 μL/well Promega Kinase Detection Reagent was added, plates centrifuged, and incubated for 30 min. Plates were then read using Luminescence method on BMG PHERAstar FSX plate reader. Percent inhibition was calculated and IC50s were determined using 4-parameter fit in Genedata Screener. Labcyte Echo acoustic dispenser was used for compound addition, and Formulatrix Tempest liquid handler was used for all reagent dispenses.

In the next experiment the target is DGKζ (Homo sapiens (Human), UniProt Q13574). As to the kind of experiment: In vitro DGKζ inhibition assay (ADP-Glo). It is filed as biochemical. To be noted: second column of Table A, head printed DGKα, presumably DGKζ; His-tagged human recombinant DGKζ 0.4 nM, 30 μM ATP, 20 μM DLG. How it is done: as §1, §2

Where only a bound is given, the exact number is not on record here.

DGKα, sequence (P23743 whole entry): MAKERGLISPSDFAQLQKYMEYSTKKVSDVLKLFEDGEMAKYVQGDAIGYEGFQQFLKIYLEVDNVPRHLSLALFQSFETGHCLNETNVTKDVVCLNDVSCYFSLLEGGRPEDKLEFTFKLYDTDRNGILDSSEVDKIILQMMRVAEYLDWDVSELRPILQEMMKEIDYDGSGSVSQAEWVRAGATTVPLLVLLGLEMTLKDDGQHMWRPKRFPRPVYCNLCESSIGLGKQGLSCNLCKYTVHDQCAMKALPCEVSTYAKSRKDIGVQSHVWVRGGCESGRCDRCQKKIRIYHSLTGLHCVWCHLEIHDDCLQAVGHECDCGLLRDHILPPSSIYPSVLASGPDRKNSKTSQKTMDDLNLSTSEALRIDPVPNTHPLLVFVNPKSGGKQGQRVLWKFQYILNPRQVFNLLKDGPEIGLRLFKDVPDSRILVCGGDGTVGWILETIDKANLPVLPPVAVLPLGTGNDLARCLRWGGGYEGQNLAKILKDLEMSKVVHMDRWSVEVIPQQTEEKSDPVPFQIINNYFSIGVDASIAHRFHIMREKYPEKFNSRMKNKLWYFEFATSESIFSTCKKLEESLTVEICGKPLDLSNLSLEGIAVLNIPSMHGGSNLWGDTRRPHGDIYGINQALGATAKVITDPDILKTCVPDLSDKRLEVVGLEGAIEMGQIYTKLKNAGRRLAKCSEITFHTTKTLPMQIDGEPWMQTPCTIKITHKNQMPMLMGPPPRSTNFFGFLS
DGKζ, sequence (Q13574 whole entry): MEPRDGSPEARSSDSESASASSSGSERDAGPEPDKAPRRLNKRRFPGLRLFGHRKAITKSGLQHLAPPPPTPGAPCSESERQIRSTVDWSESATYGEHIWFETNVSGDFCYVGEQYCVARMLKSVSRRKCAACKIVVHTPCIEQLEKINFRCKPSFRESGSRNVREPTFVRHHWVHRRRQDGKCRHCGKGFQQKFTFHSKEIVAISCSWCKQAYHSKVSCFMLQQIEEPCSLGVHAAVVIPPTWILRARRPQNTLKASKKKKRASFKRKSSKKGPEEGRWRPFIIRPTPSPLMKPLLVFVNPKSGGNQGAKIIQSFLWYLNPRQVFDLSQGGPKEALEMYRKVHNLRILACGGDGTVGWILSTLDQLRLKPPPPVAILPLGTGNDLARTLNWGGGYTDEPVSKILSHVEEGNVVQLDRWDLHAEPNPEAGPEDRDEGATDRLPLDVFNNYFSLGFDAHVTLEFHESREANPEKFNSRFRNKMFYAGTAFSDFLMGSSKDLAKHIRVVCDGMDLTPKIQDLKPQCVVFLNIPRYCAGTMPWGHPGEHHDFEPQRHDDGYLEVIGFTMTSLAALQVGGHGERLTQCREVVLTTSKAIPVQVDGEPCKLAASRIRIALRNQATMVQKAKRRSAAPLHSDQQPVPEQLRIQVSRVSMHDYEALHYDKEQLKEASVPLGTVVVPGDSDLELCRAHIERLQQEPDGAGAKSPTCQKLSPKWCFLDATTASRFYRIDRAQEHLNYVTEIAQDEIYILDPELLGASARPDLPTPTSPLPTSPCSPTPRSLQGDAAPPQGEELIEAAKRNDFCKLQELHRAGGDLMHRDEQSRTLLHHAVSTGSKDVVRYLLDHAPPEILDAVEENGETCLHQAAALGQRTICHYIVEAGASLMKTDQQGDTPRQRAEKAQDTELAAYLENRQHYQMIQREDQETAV

Take `CC[C@@H]1CN(c2nc(=O)n(C)c3c2nc(C)n3C[C@H]2OCC[C@H]2O)[C@@H](C)CN1[C@@H](CC)c1ccc(C(F)(F)F)cc1` [Example 71, 6-((2S,5R)-5-Ethyl-2-methyl-4-((S)-1-(4-(trifluoromethyl)phenyl)propyl)piperazin-1-yl)-9-(((2R,3R)-3-hydroxytetrahydrofuran-2-yl)methyl)-3,8-dimethyl-3,9-dihydro-2H-purin-2-one]: the IC50 on DGKα and at DGKζ was ≤ 10 nM each time.

`CC[C@@H]1CN(c2nc(=O)[nH]c3c2nc(C)n3C[C@@H]2CCCO2)[C@@H](C)CN1C(c1ccc(Cl)cc1)C1CC(F)(F)C1` (stereo partly drawn) [Example 36, 6-((2S,5R)-4-((4-Chlorophenyl)(3,3-difluorocyclobutyl)methyl)-5-ethyl-2-methylpiperazin-1-yl)-8-methyl-9-(((S)-tetrahydrofuran-2-yl)methyl)-3,9-dihydro-2H-purin-2-one]: the IC50 at DGKα was ≤ 10 nM; at DGKζ, ≤ 100 nM. `Cc1nc2c(N3C[C@@H](C)N(C(c4ccc(F)cc4)c4ccc(F)cc4)C[C@@H]3C)nc(=O)n(C)c2n1C[C@@H]1CCCO1` [Example 2, 6-((2S,5R)-4-(Bis(4-fluorophenyl)methyl)-2,5-dimethylpiperazin-1-yl)-3,8-dimethyl-9-(((S)-tetrahydrofuran-2-yl)methyl)-3,9-dihydro-2H-purin-2-one]: the IC50 on DGKα and at DGKζ was ≤ 10 nM throughout. In the case of `Cc1nc2c(N3C[C@@H](C)N(C(c4ccc(Cl)c(F)c4)C4CC(F)(F)C4)C[C@@H]3C)nc(=O)n(C)c2n1C[C@@H]1CCCO1` (stereo partly drawn) [Example 39, 6-((2S,5R)-4-((4-Chloro-3-fluorophenyl)(3,3-difluorocyclobutyl)methyl)-2,5-dimethylpiperazin-1-yl)-3,8-dimethyl-9-(((S)-tetrahydrofuran-2-yl)methyl)-3,9-dihydro-2H-purin-2-one], the IC50 at DGKα and at DGKζ was ≤ 10 nM in each case. Regarding `C[C@@H]1CN(c2nc(=O)n(C)c3c2nnn3C[C@H]2CCCO2)[C@@H](C)CN1C(c1ccc(F)cc1)c1ccc(F)cc1` [Example 13, 7-((2S,5R)-4-(Bis(4-fluorophenyl)methyl)-2,5-dimethylpiperazin-1-yl)-4-methyl-3-(((R)-tetrahydrofuran-2-yl)methyl)-3,4-dihydro-5H-[1,2,3]triazolo[4,5-d]pyrimidin-5-one], the IC50 on DGKα and at DGKζ was ≤ 10 nM each time.

For the compound `Cc1nc2c(N3C[C@@H](C)N([C@@H](c4ccc5cc(F)ccc5n4)C(C)C)C[C@@H]3C)nc(=O)n(C)c2n1C[C@@H]1CCCO1` [Example 48, 6-((2S,5R)-4-((R)-1-(6-fluoroquinolin-2-yl)-2-methylpropyl)-2,5-dimethylpiperazin-1-yl)-3,8-dimethyl-9-(((S)-tetrahydrofuran-2-yl)methyl)-3,9-dihydro-2H-purin-2-one], the IC50 on DGKα and at DGKζ was ≤ 10 nM in each case. Turning to `C[C@@H]1CN(c2nc(=O)n(C)c3c2c(F)cn3C[C@@H]2CCCO2)[C@@H](C)CN1C(c1ccc(F)cc1)c1ccc(F)cc1` [Example 8, 4-((2S,5R)-4-(Bis(4-fluorophenyl)methyl)-2,5-dimethylpiperazin-1-yl)-5-fluoro-1-methyl-7-(((S)-tetrahydrofuran-2-yl)methyl)-1,7-dihydro-2H-pyrrolo[2,3-d]pyrimidin-2-one], the IC50 at DGKα and at DGKζ was ≤ 100 nM each time.

Turning to `Cc1nc2c(N3C[C@@H](C)N([C@@H](c4ccc(C(F)F)c(F)c4)C(C)C)C[C@@H]3C)nc(=O)n(C)c2n1C[C@@H]1CCCO1` [Example 56, 6-((2S,5R)-4-((R)-1-(4-(difluoromethyl)-3-fluorophenyl)-2-methylpropyl)-2,5-dimethylpiperazin-1-yl)-3,8-dimethyl-9-(((S)-tetrahydrofuran-2-yl)methyl)-3,9-dihydro-2H-purin-2-one], the IC50 on DGKα and on DGKζ was ≤ 10 nM each time. Regarding `CC[C@@H]1CN(c2nc(=O)n(C)c3c2nnn3CC2(O)CCC2)[C@@H](C)CN1C(C)c1ccc(C(F)(F)F)cc1` (single isomer, unassigned) [Example 64], the 50% inhibitory concentration (IC50) at DGKα and at DGKζ was ≤ 10 nM each time. As for `Cc1nc2c(N3C[C@@H](C)N([C@@H](c4ccc(C(F)(F)F)cc4)C(C)C)C[C@@H]3C)nc(=O)n(C)c2n1C[C@@H]1CCCO1` [Example 54, 6-((2S,5R)-2,5-dimethyl-4-((R)-2-methyl-1-(4-(trifluoromethyl)phenyl)propyl)piperazin-1-yl)-3,8-dimethyl-9-(((S)-tetrahydrofuran-2-yl)methyl)-3,9-dihydro-2H-purin-2-one], the IC50 at DGKα and on DGKζ was ≤ 10 nM throughout. As to `CC[C@@H]1CN(c2nc(=O)n(C)c3c2nnn3C[C@H]2CCCO2)[C@@H](C)CN1C(c1ccc(C(F)(F)F)cc1)C1CC(F)(F)C1` (stereo partly drawn) [Example 44, 7-((2S,5R)-4-((3,3-Difluorocyclobutyl)(4-(trifluoromethyl)phenyl)methyl)-5-ethyl-2-methylpiperazin-1-yl)-4-methyl-3-(((R)-tetrahydrofuran-2-yl)methyl)-3,4-dihydro-5H-[1,2,3]triazolo[4,5-d]pyrimidin-5-one], the IC50 on DGKα and on DGKζ was ≤ 10 nM in each case.

On to `Cc1nc2c(N3C[C@@H](C(F)F)N(C(c4ccc(C(F)(F)F)cc4)C4CC(F)(F)C4)C[C@@H]3C)nc(=O)n(C)c2n1C[C@@H]1CCCO1` (single isomer, unassigned) [Example 42], for which the IC50 at DGKα and at DGKζ was ≤ 10 nM each time. Turning to `Cc1nc2c(N3C[C@@H](C)N([C@H](c4ccc5cc(F)ccc5n4)C(C)C)C[C@@H]3C)nc(=O)n(C)c2n1C[C@@H]1CCCO1` [Example 47, 6-((2S,5R)-4-((S)-1-(6-Fluoroquinolin-2-yl)-2-methylpropyl)-2,5-dimethylpiperazin-1-yl)-3,8-dimethyl-9-(((S)-tetrahydrofuran-2-yl)methyl)-3,9-dihydro-2H-purin-2-one], the IC50 at DGKα and at DGKζ was ≤ 10 nM throughout. On to `C[C@@H]1CN(c2nc(=O)n(C)c3c2ncn3CC2(O)CCC2)[C@@H](C)CN1C(c1ccc(Cl)cc1)C1CC(F)(F)C1` (stereo partly drawn) [Example 67, 6-((2S,5R)-4-((4-Chlorophenyl)(3,3-difluorocyclobutyl)methyl)-2,5-dimethylpiperazin-1-yl)-9-((1-hydroxycyclobutyl)methyl)-3-methyl-3,9-dihydro-2H-purin-2-one], for which the IC50 on DGKα and on DGKζ was ≤ 10 nM throughout.

As for `Cc1nc2c(N3C[C@@H](C)N([C@H](c4ccc(C(F)(F)F)cc4)C(C)C)C[C@@H]3C)nc(=O)n(C)c2n1C[C@@H]1CCCO1` [Example 53, 6-((2S,5R)-2,5-Dimethyl-4-((S)-2-methyl-1-(4-(trifluoromethyl)phenyl)propyl)piperazin-1-yl)-3,8-dimethyl-9-(((S)-tetrahydrofuran-2-yl)methyl)-3,9-dihydro-2H-purin-2-one], the IC50 at DGKα and at DGKζ was ≤ 100 nM in each case. As for `CC[C@@H]1CN(c2nc(=O)n(C)c3c2nc(C)n3C[C@@H]2CCCO2)[C@@H](C)CN1[C@H](CC)c1ccc(Cl)cc1` [Example 25, 6-((2S,5R)-4-((R)-1-(4-chlorophenyl)propyl)-5-ethyl-2-methylpiperazin-1-yl)-3,8-dimethyl-9-(((S)-tetrahydrofuran-2-yl)methyl)-3,9-dihydro-2H-purin-2-one], the IC50 at DGKα and at DGKζ was ≤ 10 nM each time. `Cc1nc2c(N3C[C@@H](C)N(C(c4ccc(C(F)(F)F)cc4)C4CC(F)(F)C4)C[C@@H]3C)nc(=O)n(C)c2n1C[C@@H]1CCCO1` (single isomer, unassigned) [Example 15]: the IC50 at DGKα and at DGKζ was ≤ 10 nM each time. Take `CC[C@@H]1CN(c2nc(=O)n(C)c3c2nnn3C[C@H]2CCCO2)[C@@H](C)CN1[C@H](CC)c1ccc(Cl)cc1` [Example 27, 7-((2S,5R)-4-((R)-1-(4-chlorophenyl)propyl)-5-ethyl-2-methylpiperazin-1-yl)-4-methyl-3-(((R)-tetrahydrofuran-2-yl)methyl)-3,4-dihydro-5H-[1,2,3]triazolo[4,5-d]pyrimidin-5-one]: the results for the IC50 at DGKα and on DGKζ were ≤ 10 nM and ≤ 100 nM, respectively.

Regarding `Cc1nc2c(N3C[C@@H](C)N(C(c4ccc(C(F)(F)F)cc4)[C@H]4CC4(F)F)C[C@@H]3C)nc(=O)n(C)c2n1C[C@@H]1CCCO1` (single isomer, unassigned) [Example 21], the IC50 on DGKζ was ≤ 10 nM.
